Laboratory results as given in patent publication US10770169B2, “Method of providing a treatment to a subject based on a dynamic pathway map” (THE REGENTS OF THE UNIVERSITY OF CALIFORNIA, priority 2010, dated 2020).
Like-named read-outs stand apart in the source and are kept apart here.

How the values were obtained:
[1] = system: panel of 55 breast cancer cell lines; assay: Cell growth inhibition assay (Cell Titer Glo, 72 h, 9 doses; GI50, TGI, LC50); assay type: cell-based, human; settings: Homo sapiens, read-out: GI50 (converted)
[2] = system: luminal, basal, claudin-low and ERBB2AMP breast cancer cell lines; assay: Associations of clinically relevant subtypes and response (non-parametric ANOVA or t-test on GI50 ranks); assay type: cell-based, human
In short: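 Significance was set at FDR p<0.20 after combining p-values across three test sets. Subtype–response associations came from rank-based non-parametric ANOVA or t-tests on GI50. For three-class comparisons, post-hoc tests of each group against the rest identified the most sensitive group, with FDR correction.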

## COc1cc([C@@H]2c3cc4c(cc3[C@@H](O[C@@H]3O[C@@H]5CO[C@@H](C)O[C@H]5[C@H](O)[C@H]3O)[C@H]3COC(=O)[C@H]23)OCO4)cc(OC)c1O [Etoposide]
[1]; 600MPE cell line, censored GI50 values
  GI50: 9.77 µM
[1]; AU565, AU565 cell line, censored GI50 values
  GI50: 0.676 µM
[1]; AU565, cell line AU565
  GI50: 0.676 µM
[1]; BT-20, BT20 cell line, censored GI50 values
  GI50: 3.31 µM
[1]; BT-20, cell line BT20
  GI50: 3.31 µM
[1]; BT-474, BT474 cell line, censored GI50 values
  GI50: 19.1 µM
[1]; BT-474, cell line BT474
  GI50: 19.1 µM
[1]; BT-483, BT483 cell line, censored GI50 values
  GI50: 4.27 µM
[1]; BT-483, cell line BT483
  GI50: 4.27 µM
[1]; BT-549, BT549 cell line, censored GI50 values
  GI50: 1.38 µM
[1]; BT-549, cell line BT549
  GI50: 1.38 µM
[1]; CAMA-1, CAMA1 cell line, censored GI50 values
  GI50: 5.01 µM
[1]; CAMA-1, cell line CAMA1
  GI50: 5.01 µM
[1]; HCC38, HCC38 cell line, censored GI50 values
  GI50: 0.295 µM
[1]; HCC38, cell line HCC38
  GI50: 0.295 µM
[1]; HCC70, HCC70 cell line, censored GI50 values
  GI50: 12.9 µM
[1]; HCC70, cell line HCC70
  GI50: 12.9 µM
[1]; HCC202, HCC202 cell line, censored GI50 values
  GI50: 0.933 µM
[1]; HCC202, cell line HCC202
  GI50: 0.933 µM
[1]; HCC1143, HCC1143 cell line, censored GI50 values
  GI50: 5.13 µM
[1]; HCC1143, cell line HCC1143
  GI50: 5.13 µM
[1]; HCC1187, HCC1187 cell line, censored GI50 values
  GI50: 0.692 µM
[1]; HCC1187, cell line HCC1187
  GI50: 0.692 µM
[1]; HCC1395, HCC1395 cell line, censored GI50 values
  GI50: 3.09 µM
[1]; HCC1395, cell line HCC1395
  GI50: 3.09 µM
[1]; HCC1419, HCC1419 cell line, censored GI50 values
  GI50: 70.8 µM
[1]; HCC1419, cell line HCC1419
  GI50: 70.8 µM
[1]; HCC1428, HCC1428 cell line, censored GI50 values
  GI50: 34.7 µM
[1]; HCC1428, cell line HCC1428
  GI50: 34.7 µM
[1]; HCC1500, HCC1500 cell line, censored GI50 values
  GI50: 1.41 µM
[1]; HCC1500, cell line HCC1500
  GI50: 1.41 µM
[1]; HCC1806, HCC1806 cell line, censored GI50 values
  GI50: 3.09 µM
[1]; HCC1806, cell line HCC1806
  GI50: 3.09 µM
[1]; HCC1937, HCC1937 cell line, censored GI50 values
  GI50: 4.57 µM
[1]; HCC1937, cell line HCC1937
  GI50: 4.57 µM
[1]; HCC1954, HCC1954 cell line, censored GI50 values
  GI50: 1 µM
[1]; HCC1954, cell line HCC1954
  GI50: 1 µM
[1]; HCC2185 cell line, censored GI50 values
  GI50: 7.76 µM
[1]; HCC3153 cell line, censored GI50 values
  GI50: 2.95 µM
[1]; MCF7, MCF7 cell line, censored GI50 values
  GI50: 11.2 µM
[1]; MCF7, cell line MCF7
  GI50: 11.2 µM
[1]; MDA-MB-134-VI, MDAMB134VI cell line, censored GI50 values
  GI50: 2.45 µM
[1]; MDA-MB-157, MDAMB157 cell line, censored GI50 values
  GI50: 0.955 µM
[1]; MDA-MB-157, cell line MDAMB157
  GI50: 0.955 µM
[1]; MDA-MB-175-VII, MDAMB175VII cell line, censored GI50 values
  GI50: 72.4 µM
[1]; MDA-MB-231, MDAMB231 cell line, censored GI50 values
  GI50: 2.04 µM
[1]; MDA-MB-231, cell line MDAMB231
  GI50: 2.04 µM
[1]; MDA-MB-361, MDAMB361 cell line, censored GI50 values
  GI50: 14.1 µM
[1]; MDA-MB-361, cell line MDAMB361
  GI50: 14.1 µM
[1]; MDA-MB-415, MDAMB415 cell line, censored GI50 values
  GI50: 13.8 µM
[1]; MDA-MB-415, cell line MDAMB415
  GI50: 13.8 µM
[1]; MDA-MB-436, MDAMB436 cell line, censored GI50 values
  GI50: 1 µM
[1]; MDA-MB-436, cell line MDAMB436
  GI50: 1 µM
[1]; MDA-MB-453, MDAMB453 cell line, censored GI50 values
  GI50: 5.01 µM
[1]; MDA-MB-453, cell line MDAMB453
  GI50: 5.01 µM
[1]; MDA-MB-468, MDAMB468 cell line, censored GI50 values
  GI50: 2.57 µM
[1]; MDA-MB-468, cell line MDAMB468
  GI50: 2.57 µM
[1]; SK-BR-3, SKBR3 cell line, censored GI50 values
  GI50: 1.2 µM
[1]; SK-BR-3, cell line SKBR3
  GI50: 1.2 µM
[1]; SUM52PE, SUM52PE cell line, censored GI50 values
  GI50: 2.57 µM
[1]; SUM52PE, cell line SUM52PE
  GI50: 2.57 µM
[1]; SUM149PT, SUM149PT cell line, censored GI50 values
  GI50: 2.63 µM
[1]; SUM149PT, cell line SUM149PT
  GI50: 2.63 µM
[1]; SUM185PE, SUM185PE cell line, censored GI50 values
  GI50: 4.9 µM
[1]; SUM185PE, cell line SUM185PE
  GI50: 4.9 µM
[1]; SUM225CWN, SUM225CWN cell line, censored GI50 values
  GI50: 10.2 µM
[1]; SUM225CWN, cell line SUM225CWN
  GI50: 10.2 µM
[1]; SUM1315MO2, SUM1315MO2 cell line, censored GI50 values
  GI50: 0.288 µM
[1]; SUM-159-PT, SUM159PT cell line, censored GI50 values
  GI50: 0.776 µM
[1]; SUM-159-PT, cell line SUM159PT
  GI50: 0.776 µM
[1]; T47D, T47D cell line, censored GI50 values
  GI50: 1.07 µM
[1]; T47D, cell line T47D
  GI50: 1.07 µM
[1]; UACC-893, UACC893 cell line, censored GI50 values
  GI50: 55 µM
[1]; UACC-893, cell line UACC893
  GI50: 55 µM
[1]; ZR-75-1, ZR751 cell line, censored GI50 values
  GI50: 2.09 µM
[1]; ZR-75-1, cell line ZR751
  GI50: 2.09 µM
[1]; ZR-75B, ZR75B cell line, censored GI50 values
  GI50: 0.871 µM
[1]; ZR-75B, cell line ZR75B
  GI50: 0.871 µM
[1]; cell line 600MPE
  GI50: 9.77 µM
[1]; cell line HCC2185
  GI50: 7.76 µM
[1]; cell line HCC3153
  GI50: 2.95 µM
[1]; cell line MDAMB134V
  GI50: 2.45 µM
[1]; cell line MDAMB175V
  GI50: 72.4 µM
[1]; cell line SUM1315MO
  GI50: 0.288 µM
[2]; GI50 across subtypes
  subtype-specific response (sensitivity by transcriptional subtype): preferential activity in basal and/or claudin-low cell lines
[2]; Table 6, most sensitive subtype, FDR p<0.20
  Subtype specificity: Claudin-low
